{"source": "patent US4533553A", "about": "“Polycyclic ether antibiotic” (priority 1983, dated 1985)", "key": {"[1]": {"test_system": "rumen fluid", "experiment": "in vitro rumen technique, propionic acid production", "design": "species or system cow", "settings": "10 μg./ml.", "description": "The value of animal feeds generally has been determined directly by feeding the animal. British Patent Specification No. 1,197,826 details an in vitro rumen technique whereby the changes occurring in feeds brought about by microorganisms are measured more readily and with great accuracy in the evaluation of animal feeds. This technique involves the use of an apparatus in which the digestive processes of the animals are conducted and studied in vitro. The animal feeds, rumen inoculum and various growth promotants are introduced into and withdrawn from a laboratory unit under carefully controlled conditions and the changes taken place are studied critically and progressively during the consumption of the feed by the microorganisms. […] The change in propionic acid content is expressed as percent of the propionic acid content found in the control rumen fluid. Long term in vivo feeding studies are used to show a reliable correlation between propionic acid increase in the rumen fluid and improved animal performance.\nRumen fluid is collected from a fistulated cow which is fed on a commercial fattening ration plus hay. The rumen fluid is immediately filtered through cheese cloth, and 10 ml added to a 50 ml conical flask containing 400 mg. of standard substrate (68% corn starch+17% cellulose+15% extracted soybean meal), 10 ml. of a pH 6.8 buffer and the test compound. The flasks are gassed with oxygen free nitrogen for about two minutes, and incubated in a shaking water bath at 39° C. for about 16 hours. All tests are conducted in triplicate.\nAfter incubation, 5 ml. of the sample is mixed with 1 ml. of 25% metaphosphoric acid. After 10 minutes 0.25 ml. of formic acid is added and the mixture centrifuged at 1,500 r.p.m. for 10 minutes. Samples are then analyzed by gas-liquid chromatograhy by the method of D. W. Kellog, J. Dairy Science, 52, 1690 (1969). Peak heights for acetic, propionic and butyric acids are determined for samples from untreated and treated incubation flasks."}, "[2]": {"test_system": "Pasteurella multocida", "experiment": "in vitro MIC test", "assay_type": "cell-based", "settings": "strain 59A001, 24 hours", "description": "(§1) In Table I, below, the results of in vitro MIC tests are summarized. For this test each organism is inoculated in a series of test tubes containing nutrient medium and varying concentrations of Compound 53,607 to determine the minimal concentration of the antibiotic in mcg/ml which inhibits the growth of the organism over a period of 24 hours (MIC)."}, "[3]": {"test_system": "Streptococcus faecalis", "experiment": "in vitro MIC test", "assay_type": "cell-based", "settings": "Enterococcus faecalis; strain 02A006, 24 hours", "description": "as §1"}, "[4]": {"test_system": "Staphylococcus aureus", "experiment": "in vitro MIC test", "assay_type": "cell-based", "settings": "24 h", "description": "as §1"}, "[5]": {"test_system": "Fusobacterium necrophorum", "experiment": "in vitro MIC test", "assay_type": "cell-based", "settings": "strain 84C004, 24 hours", "description": "as §1"}, "[6]": {"test_system": "Neisseria sicca", "experiment": "in vitro MIC test", "assay_type": "cell-based", "settings": "strain 66C000, 24 hours", "description": "as §1"}, "[7]": {"test_system": "Bacteroides vulgatis", "experiment": "in vitro MIC test", "assay_type": "cell-based", "settings": "strain 78E032, 24 hours", "description": "as §1"}, "[8]": {"test_system": "Treponema hyodysenteriae", "experiment": "in vitro MIC test", "assay_type": "cell-based", "settings": "Brachyspira hyodysenteriae, 24 h", "description": "as §1"}, "[9]": {"test_system": "Corynebacterium pyogenes", "experiment": "in vitro MIC test", "assay_type": "cell-based", "settings": "Rhodococcus (subgen. Prescottella) equi; strain 11D001, 24 hours", "description": "as §1"}, "[10]": {"test_system": "Bacteroides fragilis", "experiment": "in vitro MIC test", "assay_type": "cell-based", "settings": "24 h", "description": "as §1"}, "[11]": {"test_system": "Haemophilus influenza", "experiment": "in vitro MIC test", "assay_type": "cell-based", "settings": "24 h", "description": "as §1"}, "[12]": {"test_system": "Bacillus subtilis", "experiment": "in vitro MIC test", "assay_type": "cell-based", "settings": "strain 06A001, 24 hours", "description": "as §1"}, "[13]": {"test_system": "Staphylococcus epidermidis", "experiment": "in vitro MIC test", "assay_type": "cell-based", "settings": "24 h", "description": "as §1"}, "[14]": {"test_system": "Streptococcus pyogenes", "experiment": "in vitro MIC test", "assay_type": "cell-based", "settings": "24 h", "description": "as §1"}, "[15]": {"test_system": "Clostridium perfringens", "experiment": "microbe, parasite or virus in culture", "assay_type": "cell-based"}}, "note": "Counter-ions that a name gives are not always drawn.", "data": [{"smiles": "CC[C@@]1([C@@H]2O[C@@H]([C@H]3O[C@@](O)(CO)[C@H](C)C[C@@H]3C)C[C@@H]2C)CC[C@H]([C@]2(C)CC[C@]3(C[C@H](O)[C@@H](C)[C@@H]([C@@H](C)[C@@H](OC)[C@H](C)C(=O)O)O3)O2)O1", "note": "[Monensin, reference compound]", "values": [{"measurement": "increase of propionic acid over the control", "setting": "[1]", "value": "about 20%"}]}, {"smiles": "CC(=CC(C)C1OC2(CCC(C)(C3CCC(C)C4(OC(C5OC(O)(CO)C(C)CC5C)CC4C)O3)O2)CC(O)C1C)C(=O)C(C)CC(C)C(=O)O", "note": "(centres unmarked) [53,607 (sodium salt)]", "values": [{"measurement": "MIC", "setting": "[2]", "value": "> 200", "unit": "µg/mL"}, {"measurement": "MIC", "setting": "[3]", "value": 1.56, "unit": "µg/mL"}, {"measurement": "MIC", "setting": "[4]; strain 01A005, 24 hours", "value": 0.78, "unit": "µg/mL"}, {"measurement": "MIC", "setting": "[4]; strain 01A052, 24 hours", "value": 0.78, "unit": "µg/mL"}, {"measurement": "MIC", "setting": "[4]; strain 01A110, 24 hours", "value": 1.56, "unit": "µg/mL"}, {"measurement": "MIC", "setting": "[4]; strain 01A400, 24 hours", "value": 1.56, "unit": "µg/mL"}, {"measurement": "MIC", "setting": "[5]", "value": 3.12, "unit": "µg/mL"}, {"measurement": "MIC", "setting": "[6]", "value": 25, "unit": "µg/mL"}, {"measurement": "MIC", "setting": "[7]", "value": 3.12, "unit": "µg/mL"}, {"measurement": "MIC", "setting": "[8]; strain 94A001, 24 hours", "value": 0.39, "unit": "µg/mL"}, {"measurement": "MIC", "setting": "[8]; strain 94A002, 24 hours", "value": 0.098, "unit": "µg/mL"}, {"measurement": "MIC", "setting": "[9]", "value": 25, "unit": "µg/mL"}, {"measurement": "MIC", "setting": "[10]; strain 78C004, 24 hours", "value": 12.5, "unit": "µg/mL"}, {"measurement": "MIC", "setting": "[10]; strain 78C009, 24 hours", "value": 6.25, "unit": "µg/mL"}, {"measurement": "MIC", "setting": "[10]; strain 78C010, 24 hours", "value": 6.25, "unit": "µg/mL"}, {"measurement": "MIC", "setting": "[11]; strain 54A036, 24 hours", "value": 6.25, "unit": "µg/mL"}, {"measurement": "MIC", "setting": "[11]; strain 54A037, 24 hours", "value": 3.12, "unit": "µg/mL"}, {"measurement": "MIC", "setting": "[11]; strain 54A059, 24 hours", "value": 12.5, "unit": "µg/mL"}, {"measurement": "MIC", "setting": "[12]", "value": 0.39, "unit": "µg/mL"}, {"measurement": "MIC", "setting": "[13]; strain 01B087R", "value": 0.78, "unit": "µg/mL"}, {"measurement": "MIC", "setting": "[13]; strain 01B111RR", "value": 0.78, "unit": "µg/mL"}, {"measurement": "MIC", "setting": "[13]; strain 01B126, 24 hours", "value": 1.56, "unit": "µg/mL"}, {"measurement": "MIC", "setting": "[14]", "value": "< 0.01", "unit": "µg/mL"}, {"measurement": "MIC", "setting": "[15]; Clostridium perfringens, 24 h", "value": 0.98, "unit": "µg/mL"}, {"measurement": "MIC", "setting": "[15]; strain 10A003, 24 hours", "value": 0.98, "unit": "µg/mL"}]}]}
